{"source": "the OligoGym collection", "note": "These antisense oligonucleotides have a phosphorothioate backbone; sugars and methylation of C are not fully specified. Also: test concentration or dose not given here."}
{"biological_target": "BIRC2", "conditions": "ASO"}
{"sequence": "TTTCTTCACATGAACTAA", "remaining target (mRNA or protein) (fraction of control)": "≥ 1"}
{"sequence": "TTTTACTTTGAACTGTTT", "remaining target (mRNA or protein) (fraction of control)": "≥ 1"}
{"biological_target": "PCK2", "conditions": "ASO"}
{"sequence": "AAGATGTTAGTTAATATCAA", "remaining target (mRNA or protein) (fraction of control)": "≥ 1"}
{"sequence": "AATGCCAGTGGGAAGCTGGC", "remaining target (mRNA or protein) (fraction of control)": 0.88}
{"sequence": "ACCAGGCGGGAGTGGTACCG", "remaining target (mRNA or protein) (fraction of control)": 0.84}
{"sequence": "AGACTAGGCCTCAGGTCACA", "remaining target (mRNA or protein) (fraction of control)": "≥ 1"}
{"sequence": "AGGAACCGAGCGGAGCCGGG", "remaining target (mRNA or protein) (fraction of control)": 0.68}
{"sequence": "AGTACACGCCACCATCACTG", "remaining target (mRNA or protein) (fraction of control)": 0.91}
{"sequence": "CACCGTCTTGCTCTCTACTC", "remaining target (mRNA or protein) (fraction of control)": 0.85}
{"sequence": "CACTTGACAAAGTCACCATC", "remaining target (mRNA or protein) (fraction of control)": "≥ 1"}
{"sequence": "CCAGTCGGGTCATAATACGC", "remaining target (mRNA or protein) (fraction of control)": 0.74}
{"sequence": "CCCACAAACACCCCATGACG", "remaining target (mRNA or protein) (fraction of control)": 0.35}
{"sequence": "CCGGGCCAGCCGAGAGGCGA", "remaining target (mRNA or protein) (fraction of control)": "≥ 1"}
{"sequence": "CTGCATGCAGCCTGGAAACC", "remaining target (mRNA or protein) (fraction of control)": 0.83}
{"sequence": "CTTGCCCAGCAGGGAGTTGC", "remaining target (mRNA or protein) (fraction of control)": "≥ 1"}
{"sequence": "CTTTGTGTTCTGCTGCAGCA", "remaining target (mRNA or protein) (fraction of control)": 0.49}
{"sequence": "GAGCATTCTCCCCAAAGCCT", "remaining target (mRNA or protein) (fraction of control)": 0.95}
{"sequence": "GAGCTGCACCCCGATGCGGG", "remaining target (mRNA or protein) (fraction of control)": "≥ 1"}
{"sequence": "GCGTTGGGATTGGTGGTGGC", "remaining target (mRNA or protein) (fraction of control)": 0.82}
{"sequence": "GCTACGGCATGATGGCCAGC", "remaining target (mRNA or protein) (fraction of control)": 0.89}
{"sequence": "GGACAGTCTTTGTGGGAAGG", "remaining target (mRNA or protein) (fraction of control)": "≥ 1"}
{"sequence": "GGCACTAGGGAAGGCGGCTG", "remaining target (mRNA or protein) (fraction of control)": 0.84}
{"sequence": "GGCAGATCCTGGTTGACCTG", "remaining target (mRNA or protein) (fraction of control)": 0.81}
{"sequence": "GGCCCGGAGTCGACCTTCAC", "remaining target (mRNA or protein) (fraction of control)": 0.68}
{"sequence": "GGCGGTACAATGCGGCCATG", "remaining target (mRNA or protein) (fraction of control)": 0.81}
{"sequence": "GGGCCTCCCAGGCTGGGTCC", "remaining target (mRNA or protein) (fraction of control)": "≥ 1"}
{"sequence": "GGTGATGCCCAGGATCAGCA", "remaining target (mRNA or protein) (fraction of control)": 0.78}
{"sequence": "GTAGTGCCCGAAGTTGTAGC", "remaining target (mRNA or protein) (fraction of control)": 0.77}
{"sequence": "TCACATTTTGTGCACACGTC", "remaining target (mRNA or protein) (fraction of control)": 0.76}
{"sequence": "TCACGAACCTCCTGTTCCCA", "remaining target (mRNA or protein) (fraction of control)": 0.6}
{"biological_target": "INPPL1", "conditions": "ASO"}
{"sequence": "AAGTAGTTTTGGTTCCTC", "remaining target (mRNA or protein) (fraction of control)": "≥ 1"}
{"sequence": "ACAGACCAGGAGACAGTG", "remaining target (mRNA or protein) (fraction of control)": 0.94}
{"sequence": "ACGGTGGGATAGGAAGGT", "remaining target (mRNA or protein) (fraction of control)": "≥ 1"}
{"sequence": "AGACCCACACAGAACAGT", "remaining target (mRNA or protein) (fraction of control)": "≥ 1"}
{"sequence": "AGAGCAGGGCAGCACAGA", "remaining target (mRNA or protein) (fraction of control)": "≥ 1"}
{"sequence": "AGGTGGGTGGGAAGGAGA", "remaining target (mRNA or protein) (fraction of control)": 0.98}
{"sequence": "ATGTTGTCACTGCTCTGG", "remaining target (mRNA or protein) (fraction of control)": 0.92}
{"sequence": "CACCCCAATAAATAGGCA", "remaining target (mRNA or protein) (fraction of control)": "≥ 1"}
{"sequence": "CAGGCGGTAGTTGAGGTC", "remaining target (mRNA or protein) (fraction of control)": "≥ 1"}
{"sequence": "CAGTGGTGGAGGTGGAAA", "remaining target (mRNA or protein) (fraction of control)": "≥ 1"}
{"sequence": "CATGGCTGATACGGTTCT", "remaining target (mRNA or protein) (fraction of control)": 0.98}
{"sequence": "CCAACCTCAAATGTCCCA", "remaining target (mRNA or protein) (fraction of control)": "≥ 1"}
{"sequence": "CCATAGGATTCATAGCCA", "remaining target (mRNA or protein) (fraction of control)": "≥ 1"}
{"sequence": "CCATAGTCCGAGGGCAGT", "remaining target (mRNA or protein) (fraction of control)": 0.88}
{"sequence": "CCTCATAACTTTTCAACC", "remaining target (mRNA or protein) (fraction of control)": "≥ 1"}
{"sequence": "CCTTGTCCACCTCACTGT", "remaining target (mRNA or protein) (fraction of control)": 0.81}
{"sequence": "CGCTCTCGCTGTCTCGGA", "remaining target (mRNA or protein) (fraction of control)": "≥ 1"}
{"sequence": "CGTTGGTGGCGGTTTCTC", "remaining target (mRNA or protein) (fraction of control)": 0.93}
{"sequence": "CTCTGGTTCTTCAAATAA", "remaining target (mRNA or protein) (fraction of control)": "≥ 1"}
{"sequence": "GACAGCACCAGAGTAACC", "remaining target (mRNA or protein) (fraction of control)": 0.69}
{"sequence": "GACATCACGCCGCAACCC", "remaining target (mRNA or protein) (fraction of control)": 0.39}
{"sequence": "GAGATACTGCCCTGACCC", "remaining target (mRNA or protein) (fraction of control)": "≥ 1"}
{"sequence": "GCACCAGCCGCCCACCCT", "remaining target (mRNA or protein) (fraction of control)": 0.3}
{"sequence": "GCACCCCAGCCTCCTCCA", "remaining target (mRNA or protein) (fraction of control)": 0.79}
{"sequence": "GGAGATGAACTGGGAGGT", "remaining target (mRNA or protein) (fraction of control)": 0.48}
{"sequence": "GGATGCGGTCGTGCGTGA", "remaining target (mRNA or protein) (fraction of control)": 0.86}
{"sequence": "GGTCCTTCTCCTTCTCAA", "remaining target (mRNA or protein) (fraction of control)": 0.52}
{"sequence": "GTGCCTATGAAGACTGAG", "remaining target (mRNA or protein) (fraction of control)": 0.4}
{"sequence": "GTGGCAGATGGGACAGGG", "remaining target (mRNA or protein) (fraction of control)": "≥ 1"}
{"sequence": "TCCAAGTCCTCCTCGGTG", "remaining target (mRNA or protein) (fraction of control)": "≥ 1"}
{"sequence": "TCCAGGCAGGTAGAGTAG", "remaining target (mRNA or protein) (fraction of control)": "≥ 1"}
{"sequence": "TCCCCACTGCCCACTTCC", "remaining target (mRNA or protein) (fraction of control)": "≥ 1"}
{"sequence": "TCCCTCCCCAGACCCACA", "remaining target (mRNA or protein) (fraction of control)": "≥ 1"}
{"sequence": "TCCGTCCTGAGCCTAAAA", "remaining target (mRNA or protein) (fraction of control)": 0.7}
{"sequence": "TCTGTGACTTCCCAATCT", "remaining target (mRNA or protein) (fraction of control)": 0.93}
{"sequence": "TGCCCCACCCCAACCAAC", "remaining target (mRNA or protein) (fraction of control)": "≥ 1"}
{"sequence": "TGCGGCTGGCTGTCTTCA", "remaining target (mRNA or protein) (fraction of control)": 0.85}
{"sequence": "TGCTCCTGCCTCATCCTT", "remaining target (mRNA or protein) (fraction of control)": 0.54}
{"sequence": "TGTGCCTCCAGACTCCTC", "remaining target (mRNA or protein) (fraction of control)": 0.59}
{"sequence": "TTGCGGCTCCCTGACCTG", "remaining target (mRNA or protein) (fraction of control)": "≥ 1"}
